# According to patent publication US20220241229A1, “Methods and Compositions for Altering Senescence Associated Secretory Phenotype” (BUCK INSTITUTE FOR RESEARCH ON AGING, priority 2019, published 2022):
# Entries after “also recorded” stand apart in the source; their conditions may differ. Like-named read-outs stand apart in the source and are kept apart here.
# Tests used:
# C57BL6/J mice [1] = details: Cohort-1, 2% w/w AKG diet from 18 months of age
# From the text: (§1) The principle endpoint of health span and lifespan study was natural death or mice found dead at daily inspection or age at euthanasia (for mice deemed unlikely to survive for next 48 hr and are in enormous discomfort). The criteria for euthanasia were based on an independent assessment by a veterinarian, according to AAALAC guidelines and only where the condition of the animal was considered. Severe lethargy, rapid weight loss (over two weeks>20%), severe distended abdomen and body condition score with signs of pain (grimace), inability to move despite the stimuli, severe ulcer or bleeding tumor, sever temperature loss with abnormal breathing rate. Animal found dead or euthanized was necropsied for pathology score. No invasive measurements were performed on this population, n=180 animals (two cohorts of 90 animals). A sacrificed group were purchased at 14 months of age, baselined and grouped the following week. […] Animals were sacrificed and tissues were collected after 3 months of treatment. Food intake and body weight were measured on a biweekly and bimonthly basis for the duration of the study.
# (§2) Python Software was used to extract all the health span data and create files compatible with R software for analysis. Data were analyzed using R, GraphPad Prism 7 and OASIS 2 software. Log-rank (Mantel-Cox) tests were used to analyze Kaplan-Meier curves, and a fisher's exact test was performed for maximum lifespan analysis (at 90% survival). […] Two-way analysis of variance (ANOVA) with Bonferroni post hoc correction was used for analysis between morbidity curves. The area under curve (AUC) of […] graphs were measured baselining at 18 months of age. The changes in AUC were used to calculate the percent compression of morbidity.
# C57BL6/J mice [2] = details: for Incidence and severity of aging phenotypes / morbidity (total frailty score): female and male, Cohort-1, 2% w/w diet from 18 months; for Age-related changes in female coat color / hair discoloration: female mice; for Severity of individual frailty phenotypes: grimace, poor coat condition, gait disorder
# From the text: For the subjective properties of the assessments, all measurements were completely blinded. These assessments indicate age-associated deterioration of health and include evaluation of the animal musculoskeletal system, the vestibulocochlear/auditory systems, the ocular and nasal systems, the digestive system, the urogenital system, the respiratory system, signs of discomfort, body weight and body surface temperature. 0 is assigned if no sign of frailty is observed and the animal is healthy for that phenotype. A moderate phenotype and a severe phenotype is scored 0.5 and 1 respectively. Loss of temperature and weight were scored using standard deviation for the study (Table 2). All the phenotypes were scored as described before by Whitehead, J. C., et al., except for temperature and weight. Temperature and weights scoring: Briefly, for weight and temperature, the new scaling scores were used; Average and standard deviations (STDEV) were calculated sex specifically using our own baseline data sets (data collected before the start of the treatment mice at 18th month age). A decrease in temperature or weight (FIG. 3B, and FIG. 3D) within one STDEV is scored as a (0), a decrease bigger than one STDEV but smaller than 2 STDEV will be scored as a (0.5) and any decrease more than 2 STDEV is scored as a (1).
# as §2
# In order to assess healthspan, measurements were applied that are based on a clinically relevant frailty index. The frailty index (FI) consists of 31 phenotypes that are indicators of age-associated health deterioration, with each phenotype scored on a 0, 0.5 or 1 scale, based on its severity. Body weight and surface temperature were collected and converted to the same scoring scales (Table 2). All scorings were conducted in a blinded manner.
# The 31-metrics share many characteristics of the human frailty indices and has been reported to progress similarly with aging in mice and humans. Measurements were repeated approximately every eight weeks, providing us with eight and seven sets of data respectively for male and female groups. To establish a baseline clinical assessment, a dataset was collected right before the start of the treatment at 18th months (FIG. 4A-FIG. 4D).
# Since the age for onset of age-related phenotypes can be quite heterogeneous in mammals, frailty datasets were plotted not only as a function of chronological time, but also in proportion to the lifespan of each mouse by binning scores within ten percentile (e.g. scores collected between 60% and 70% of the animals' lifespans were binned and plotted at 65%), (FIG. 9A-FIG. 9B). This further aligns assessments with respect to the biologic age of the animal.
# [3] = Body weight and food consumption; assay type: in vivo, mice
# From the text: as §1
# Metabolism was measured applying indirect calorimetry. Promethion metabolic cage system-Sable Systems International was used.
# [4] = tested on: inflammatory cytokines and chemokines; experiment: Inflammatory cytokines and chemokines in serum (multiplex bead array); assay type: in vivo, mice; details: for Levels of 30 inflammatory cytokines and chemokines: aged female mice (29 month old) vs. aged control and young
# Method: The samples were measured for soluble cytokines and chemokines in serum using multiplex bead array technology (MD31).
# IMR-90 fibroblasts = experiment: Senescence formation in irradiated IMR-90 fibroblasts (SA-β-gal, EdU); assay type: cell-based; details: 10 Gy ionizing radiation; 1 mM for 10 days
# Method: IMR-90 fetal lung fibroblasts were obtained from ATCC and were cultured at 37° C. in 3% O2 and 5% CO2. Dulbecco's modified Eagle's media (DMEM) supplemented with 10% fetal bovine serum and streptomycin/penicillin were used. Media was changed every 2 days during the experiment. For damage-induced senescence, cells were irradiated with doses of either 0 or 10 Gy of ionizing radiation (IR). Cells were concurrently treated with PBS (control) or 1 mM AKG for 10 days, changing media every 2 days. All assays were performed 10 days post irradiation.
# Cells were stained for the senescence-associated 3-gal (SA-3-gal) marker as described. Non-senescent cells (having undergone fewer than 35 population doublings) were made quiescent by washing with PBS and incubating in DMEM containing 0.2% serum for 4 day. Cultures that had >80% SA-3-gal positive cells and ≤4% EdU positive cells were considered senescent.
# [5] = tested on: senescence-associated secretory phenotype (SASP) genes; experiment: qRT-PCR of SASP genes in irradiated IMR-90 fibroblasts; assay type: cell-based; details: 10 Gy ionizing radiation; 1 mM for 10 days
# Method: For damage-induced senescence, cells were irradiated with doses of either 0 or 10 Gy of ionizing radiation (IR). Cells were concurrently treated with PBS (control) or 1 mM AKG for 10 days, changing media every 2 days. All assays were performed 10 days post irradiation.
# RNA quality and quantity were assessed using NanoDrop™ 1000 spectrophotometer measures (Thermo Scientific). Total cDNAs were synthesized from 500 ng of RNA using random primers and iScript RT reagents following the manufacturer's protocol Superscript II (Invitrogen, Carlsbad, USA). Gene expression was measured from cDNA using the Roche Universal Probe Library system (Indianapolis, Ind., USA). All values were normalized to beta-actin.
# C57BL6/J mice [6] = details: treated group vs. control
# Method: Metabolism was measured applying indirect calorimetry. Promethion metabolic cage system-Sable Systems International was used. The system is equipped with GA-3 small mammal gas analyzers for measurements of O2 (consumption) and CO2 (production). Energy expenditure, food intake, water consumption, body weight, physical activity and volunteer exercise were simultaneously recorded over 4 consecutive days (96 hours). Mice were housed individually in metabolic cages and accustomed to their environment a day before the start of recording. Data were analyzed using Sable System Expedata-P Data Analysis Software. Subsequently, CalR software, a free web tool was used for analysis of experiments using indirect calorimetry, to analyze the raw data, generate some plots and run statistical analysis.
# [7] = aged mice (29 months old) vs. young and aged control
smiles,measurement,setting,value
"O=C(O)CCC(=O)C(=O)O [AKG, 2-oxopentanedioic acid]",Age (days) at 100%,C57BL6/J mice [1]; female,1116 days
same,Age (days) at 100%,C57BL6/J mice [1]; male & female,1173 days
same,Age (days) at 100%,C57BL6/J mice [1]; male,1173 days
same,Compression of morbidity (proportion of life frail),"C57BL6/J mice [2]; both sexes, total frailty scores vs. percentage of lifespan",compresses the morbidity risk into fewer days of life; also recorded: decreases the proportion of life in which the animal is frail
same,Incidence and severity of aging phenotypes / morbidity (total frailty score),C57BL6/J mice [2],extends healthspan and alleviates age-associated frailty
same,Age-related changes in female coat color / hair discoloration,C57BL6/J mice [2],prevents age-associated hair discoloration
same,Body weight preservation (age-related weight loss),"[3]; male mice, second cohort, P value<0.001",preserves body weight; also recorded: better body weight preservation
same,Food consumption,"[3]; measured for 3 consecutive days at 19, 23 and 28 months, AKG fed vs. control",no significance change
same,Levels of 30 inflammatory cytokines and chemokines,[4],general trend of reduction
same,Level of IL-3,[4]; [7],do not show an increase
same,Level of IL-7,[4]; [7],do not show an increase
same,Level of MIP-1β,[4]; [7],do not show an increase
same,Level of TNFα,[4]; [7],do not show an increase
same,Senescence formation / senescence growth arrest,IMR-90 fibroblasts,without preventing the senescence growth arrest
same,Range of inflammatory cytokines (proinflammatory SASP),[5],lowers the proinflammatory SASP
"O=C([O-])CCC(=O)C(=O)[O-].[Ca+2] [CaAKG, Calcium alpha-ketoglutarate]",Incidence and severity of aging phenotypes / morbidity (total frailty score),C57BL6/J mice [2],decreases incidence and severity of different aging phenotypes and postpones morbidity
same,Age-related changes in female coat color / hair discoloration,C57BL6/J mice [2],protection from age-related changes in female coat color was particularly prominent
same,"Total frailty score, health improvement vs. control","C57BL6/J mice [2]; female, P<0.001, P<0.05",significant improvements after 9 months of treatment and again at 11 months post treatment
same,Gait,C57BL6/J mice [2]; females and males close to median life,Gait improvement
same,Severity of individual frailty phenotypes,"C57BL6/J mice [2]; females: piloerection, alopecia, loss of fur color, grip strength loss, rectal prolapse, body weight loss",significantly decreased
same,"Total frailty score, health improvement vs. control","C57BL6/J mice [2]; male, persisted until last measurement at 33 months of age, P<0.01, P<0.05",significant health improvement after 11 months
same,Severity of individual frailty phenotypes,"C57BL6/J mice [2]; males: grip strength loss, vestibular disturbance, loss of menace reflex, hearing loss, eye discharge, poor body condition, tail stiffening, abnormal breathing rate",significantly decreased the severity of multiple aging phenotypes
same,Level of carbon dioxide production,C57BL6/J mice [6],significantly lower
same,Level of energy expenditure,C57BL6/J mice [6],significantly lower
same,Level of oxygen consumption,C57BL6/J mice [6],significantly lower
same,Levels of 30 inflammatory cytokines and chemokines,[4],largely refractory to these changes
same,Level of IL-3,[4]; [7],significant changes
